In brackets after ≈: the same amount, converted by molar mass.
Tests used:
[1] = Antioxidant activity assessed as DPPH radical scavenging activity incubated for 30 mins by spectrophotometric analysis; type: functional
[2] = Antioxidant activity assessed as ABTS radical scavenging activity measured after 6 mins; type: functional
[3] = tested on: RAW264.7; assay: Antiinflammatory activity in mouse RAW264.7 cells assessed as inhibition of LPS-induced NO production preincubated for 1 hrs followed by LPS stimulation and measured after 24 hrs by Griess reagent based spectrophotometrical method; type: functional, cell-based
[4] = Antioxidant activity assessed as […] radical scavenging activity at 50 uM; type: functional
[5] = tested on: Rattus norvegicus; assay: Antiinflammatory activity in rat model of carrageenan-induced paw edema assessed as reduction in paw thickness at 10 mg/kg,ip and measured after 4 hrs; type: functional; set-up: scale not given: the % may be the effect or the level left
[6] = tested on: RAW264.7; assay: Antiinflammatory activity in mouse RAW264.7 cells assessed as inhibition of LPS-induced NO production preincubated for 0.5 hrs followed by LPS stimulation and measured after 24 hrs by Griess reagent based analysis; type: functional, cell-based
[7] = tested on: Mus musculus; assay: Antiinflammatory activity in ICR mouse model of TPA-induced ear edema assessed as inhibition of ear inflammation at 1 mg,TOP for 30 mins followed by TPA addition and measured after 6 hrs; type: functional; details: time 390 min, 6.5 h
[8] = tested on: RAW264.7; assay: Antiinflammatory activity in mouse RAW264.7 cells assessed as inhibition of LPS-induced NO production incubated for 18 hrs by Griess method; type: functional, cell-based; details: RAW264.7, 18 h
[9] = tested on: RAW264.7; assay: Antiinflammatory activity in mouse RAW264.7 cells assessed as inhibition of LPS-induced NO production preincubated for 1 hrs followed by LPS stimulation and measured after 24 hrs by Griess method; type: functional, cell-based
[10] = Antiinflammatory activity in mouse N11 cells assessed as inhibition of LPS-induced NO production preincubated for 1 hrs followed by LPS stimulation and measured after 24 hrs by Griess method; type: functional, cell-based
[11] = tested on: RAW264.7; assay: Antiinflammatory activity in mouse RAW264.7 cells assessed as inhibition of LPS-induced TNFalpha level preincubated for 1 hrs followed by LPS stimulation and measured after 24 hrs by ELISA; type: functional, cell-based
[12] = Antiinflammatory activity in mouse N11 cells assessed as inhibition of LPS-induced TNFalpha level preincubated for 1 hrs followed by LPS stimulation and measured after 24 hrs by ELISA; type: functional, cell-based
[13] = Antioxidant activity assessed as nitroblue tetrazolium superoxide radical scavenging activity incubated for 10 mins by spectrophotometric analysis; type: functional
[14] = tested on: RAW264.7; assay: Antiinflammatory activity in mouse RAW264.7 cells assessed as inhibition of LPS-induced NO production preincubated for 1 hrs followed by LPS stimulation and measured after 24 hrs by Griess reagent based analysis; type: functional, cell-based
[15] = tested on: RAW264.7; assay: Antiinflammatory activity in mouse RAW264.7 cells assessed as inhibition of LPS-induced NO production incubated for 20 hrs by Griess method; type: functional, cell-based; details: RAW264.7, 20 h
[16] = tested on: RAW264.7; assay: Antiinflammatory activity in mouse RAW264.7 cells assessed as inhibition of IFN-gamma and LPS-induced NO production incubated for 24 hrs by Griess assay; type: functional, cell-based; details: RAW264.7, 24 h
[17] = tested on: RAW264.7; assay: Antiinflammatory activity against mouse RAW264.7 cells assessed as inhibition of IFN-gamma and LPS-induced COX2 production preincubated for 2 hrs followed by IFN-gamma and LPS stimulation and measured after 16 hrs by spectrophotometric analysis; type: functional, cell-based
[18] = tested on: RAW264.7; assay: Antiinflammatory activity in mouse RAW264.7 cells assessed as inhibition of LPS-induced NO production at 30 uM preincubated for 0.5 hrs followed by LPS stimulation and measured after 24 hrs by Griess reagent based analysis; type: functional; details: time 24.5 hrs
[19] = tested on: J774.1; assay: Antiinflammatory activity in mouse J774.1 cells assessed as inhibition of LPS-induced NO production incubated for 48 hrs by Griess reagent based analysis; type: functional, cell-based; details: Mus musculus, J774.1, 48 h
[20] = Inhibition of COX in bovine seminal vesicle assessed as reduction in PGE2 production using arachidonic acid as substrate; type: tissue-based, Bos taurus
[21] = tested on: RAW264.7; assay: Antiinflammatory activity in mouse RAW264.7 cells assessed as inhibition of LPS-induced NO production for 24 hrs by Griess assay; type: functional, cell-based; details: RAW264.7, 24 h
[22] = tested on: Mus musculus; assay: Antiinflammatory activity in TPA-induced ear edema ICR mouse model assessed as inhibition of ear inflammation at 1 ug, TOP for 30 mins followed by TPA addition and measured after 6 hrs; type: functional; details: dose 1 µg, time 390 min, 6.5 h

Compound `COc1c2cc(c(OC)c1OC)-c1cc(ccc1O)CC(O)C(=O)CCCC2` (centres undefined) has an IC50 [1] greater than 250 µM, an IC50 [2] of 73.7 µM and an IC50 [3] of 46.9 µM.

With `COc1c2cc(c(O)c1OC)CCCCC(=O)CCc1ccc(O)c-2c1` [MYRICANONE] the IC50 [2] was 19.6 µM, the IC50 [3] was 1 µM and the Activity [4] was 41%. For the same compound, the Activity [5] was 49.6%.

With `CO[C@@H](CCc1ccc(O)cc1)CC(=O)CCc1ccc(O)cc1` the IC50 [6] was 15.2 µM.

With `Oc1ccc2cc1Oc1ccc(cc1)CCCC[C@@H](O)CC2` the ID50 [7] was 0.26 mg.

With `CCCOC(=O)c1cc(O)c(O)c(O)c1` the Activity [4] was 97%.

For `Oc1ccc(CC[C@@H](O)CCCCc2ccc(O)c(O)c2)cc1`, the IC50 [8] was 13.8 µM.

`COc1c2cc(c(O[C@@H]3O[C@H](CO)[C@@H](O)[C@H](O)[C@H]3O)c1OC)CCCC[C@H](O)CCc1ccc(O)c-2c1` showed an Activity [4] of 41% and an Activity [5] of 47.1%.

With `COc1ccc(C/C=C/CCCCc2ccc(O)cc2)cc1` the IC50 [9] was 47 µM, the IC50 [10] was 63.2 µM and the IC50 [11] was 29.6 µM. It also gave an IC50 [12] of 29.6 µM.

For `COc1c2cc(c(O)c1OC)CCCC[C@H](O)CCc1ccc(O)c-2c1`, the Activity [4] was 41% and the Activity [5] was 51.5%.

Compound `COc1ccc(C/C=C/CCCCc2cccc(O)c2)cc1` has an IC50 [9] of 47 µM, an IC50 [10] of 44.2 µM and an IC50 [11] of 9.9 µM. The IC50 [12] was 29.6 µM.

Work on `Oc1ccc(CCCC[C@@H](O)CCc2ccc(O)c(O)c2)cc1O` yielded an IC50 [1] of 23.3 µM, an IC50 [13] of 11.6 µM and an IC50 [14] of 10.2 µM. For the same compound, the IC50 [15] was 5.2 µM, the IC50 [6] was 20 µM and the IC50 [16] was 28.4 µg/mL (≈ 85.4 µM). It also gave an IC50 [17] of 45.3 µg/mL (≈ 136 µM).

`N=C(NCCC[C@H](N)C(=O)O)N[N+](=O)[O-]` [NITROARGININE] gave an IC50 [3] of 39.5 µM.

`COc1c2cc(c(O[C@@H]3O[C@H](CO)[C@@H](O)[C@H](O)[C@H]3O)c1OC)CCCCC(=O)CCc1ccc(O)c-2c1` showed an Activity [4] of 41% and an Activity [5] of 46.9%.

Compound `COc1cc2cc(c1O)-c1cc(ccc1O)CCC(=O)CCCC2` [MYRICANANIN C] has an IC50 [2] of 12 µM and an IC50 [3] of 13 µM.

For `OC[C@H]1O[C@@H](O[C@H](CCCCc2ccc(O)cc2)CCc2ccc(O)c(O)c2)[C@H](O)[C@@H](O)[C@@H]1O`, the inhibition at 30 µM [18] was 37%.

`Oc1ccc2cc1Oc1ccc(cc1)CC[C@H](O)CCCC2` [ACEROGENIN A] gave an ID50 [7] of 0.32 mg.

With `COc1cc(O)c([C@H](/C=C/C[C@@H](O)CCc2ccc(O)cc2)c2ccc(O)cc2)c(O)c1C(=O)[C@@H]1[C@H](/C=C/c2ccc(O)cc2)C[C@H](CCc2ccc(O)cc2)O[C@H]1c1ccc(O)cc1` the IC50 [19] was 36 µM.

Work on `O=C1CCN(c2ccccc2)N1` [PHENIDONE] yielded an IC50 [20] of 11.8 µM.

For `Oc1ccc(CC[C@H](O)CCCCc2ccc(O)c(O)c2)cc1`, the IC50 [6] was 22.1 µM.

For `COc1cc(C(O)C(O)C(O)CC(O)C(O)Cc2ccc(O)cc2)ccc1O` (centres undefined), the IC50 [21] was 46.7 µM.

Work on `Oc1ccc(CCCC[C@H](CCc2ccc(O)cc2)O[C@@H]2OC[C@@H](O)[C@H](O)[C@H]2O)cc1` yielded an IC50 [6] of 63 µM.

With `O=C(CCCCc1ccc(O)cc1)CCc1ccc(O)c(O)c1` the IC50 [8] was 13.2 µM.

`CCC(C)C(=O)O[C@@H]1[C@@H](O[C@@H](CCc2ccc(O)c(O)c2)CC(=O)CCc2ccc(O)c(O)c2)OC[C@H](O)[C@H]1O` (some centres undefined) gave an IC50 [6] of 30 µM.

`CO[C@@H](CCc1ccccc1)CC(=O)CCc1ccccc1` gave an ID50 [22] of 2.7 µmol.

`COc1cc([C@@H]2O[C@H]([C@@H](O)Cc3ccc(O)cc3)C[C@@H](O)[C@@H]2O)ccc1O` showed an IC50 [21] greater than 100 µM.

`COc1c2cc(c(O[C@@H]3O[C@H](CO)[C@@H](O)[C@H](O)[C@H]3O)c1O)CCCCC(=O)CCc1ccc(OC(C)=O)c-2c1` gave an Activity [4] of 41% and an Activity [5] of 46.3%.

`COc1cc(O)c([C@@H]2C[C@H](CCc3ccc(O)cc3)O[C@@H](c3ccc(O)cc3)C2)c(O)c1C(=O)/C=C/c1ccc(O)cc1` [EPICALYXIN F] gave an IC50 [19] of 51 µM.

Reference: ChEMBL document CHEMBL5233262, “Anti-inflammatory activity of naturally occuring diarylheptanoids - A review” (Bioorg Med Chem, 2021)
